Reference: patent US8663616B2, “Enzymatic peracid generation for use in oral care products” (E I du Pont de Nemours and Company, priority 2010, dated 2014)

How the values were obtained:
[1] = One-step bleaching of stained bovine enamel with perhydrolase system (Example 12)
Source text: (§1) Whiteness index (WI) is defined by the International Commission on Illumination (CIE) and described in ASTM method E313-05 and calculated for D65/10 incident light as: WI=Y+800*(0.3138−x)+1700*(0.3310−y) Where Y, x, and y are the luminance factor and the chromaticity coordinates respectively of the enamel substrate.
(§2) The purpose of this example is to show the tooth bleaching effect of enzymatic generated peracetic acid in a one-step application and compare to the performance achieved with chemically derived peracetic acid. Two methods were developed to use a perhydrolytic enzyme (CE-7 perhydrolase) system to achieve the target level of tooth bleaching. The first method (referred to herein as the “one-step approach”) comprises combining different amounts of at least one CE-7 perhydrolase with triacetin (an example of a suitable ester substrate) and hydrogen peroxide to generate peracetic acid using model stained enamel substrates. Bovine enamel incisors were prepared as indicated in Example 1. Stained bovine enamel blocks were hydrated in water at least 1 hr prior to use to stabilize the color of the substrate. The color for each enamel block was measured after hydration prior to the start of the experiment. Three enamel samples were treated for each solution type. The solutions used were a buffer only control, 2.5% H2O2, 1% peracetic acid, a perhydrolase composition including 10 μM EZ-1 (C277S; SEQ ID NO: 424), 100 mM triacetin and 250 mM H2O2 and a no enzyme control of 100 mM triacetin and 250 mM H2O2. All solutions were prepared in 500 mM sodium phosphate buffer, pH 7.2. The high buffer strength was necessary to maintain the 1% peracetic acid solution at neutral pH. All solutions were freshly prepared for each treatment point. The enzyme-triacetin-H2O2 combination and triacetin-H2O2 combination was mixed immediately before enamel exposure. After each treatment step, each enamel block was rinsed with water and a color measurement was obtained. A total treatment time of 61 min was used with durations of exposure of 1 min, 5 min, 10 min, 15 min and 30 min. The concentration of peracetic acid in solution after the 1 min, 10 min and 30 min treatments was evaluated by colorimetric detection of ABTS oxidation.

[2] = Peracetic acid vs hydrogen peroxide bleaching of coffee/tea stained bovine enamel (whiteness index); conditions: for ΔWI: 0 to 61 min; for Whiteness Index 0 min: before exposure
Source text: This example describes the use of peracetic acid to achieve a bleaching effect on model stained enamel surfaces. Bovine enamel incisors were obtained from SE Dental (Baton Rouge, La.). Teeth were sectioned and cut into enamel slabs approximately 7 mm on each side using a DREMEL® rotary saw (Robert Bosch Power Tool Corporation; Chicago, Ill.) with a diamond blade. The enamel slabs were cleaned and lightly polished to remove surface debris. The enamel was pretreated with a mixture of coffee and tea for 1-5 days in order to stain to a color similar to human stained teeth.
Each enamel block was hydrated in water for at least 1 hr prior to use. Color measurements for the substrate were obtained prior to exposure to test solutions. Solutions of peracetic acid were prepared from a 32% stock in 500 mM sodium phosphate buffer, pH 7.2. A solution of 2.5% H2O2 was also prepared in the same buffer. Multiple enamel blocks were exposed to each solution for 1 min followed by additional exposures of 5 min, 10 min, 15 min and 30 min. For each treatment, a fresh solution of peracetic acid and hydrogen peroxide was prepared from the stock solutions. After each treatment the enamel blocks were rinsed with water and measured with a Konica-Minolta 2600d spectrophotometer.
as §1

[3] = Bleaching of coffee-tea stained bovine enamel with EZ-1 and various ester substrates (Example 15)
Experimental: The optimal conditions used for the generation of peracetic acid with each substrate were derived from the studies in Example 14 and are listed below as follows:
Bovine enamel incisors were prepared as indicated in Example 1. The stained enamel blocks were placed in a 24 well plate with the dentin side facing down and hydrated overnight in phosphate buffer, pH 7.2. Prior to treatment, a color measurement of each tooth was performed using a Konica-Minolta 2600d spectrophotometer and whiteness index was calculated as specified in Example 1.
Each enzyme solution was prepared in a 1.5-mL microfuge tube (Eppendorf, #2243102-1) and 1 mL of the solution was immediately transferred to the 24 well plate containing the pre-hydrated teeth. The control samples consisted of 100 mM phosphate buffer, pH 7.2 and 9% H2O2 in 100 mM citrate/phosphate buffer, pH 5.3. The teeth were incubated at room temperature for 30 minutes, removed, rinsed with 100 mM phosphate, pH 7.2 and a color measurement was taken. The teeth were placed back into the 24 well plate at which time fresh enzyme solutions were prepared and added to each well. This process was repeated for a total of 3 whitening treatments; 30 min per treatment (Table 22).

[4] = Peracetic acid in treatment solution by ABTS absorbance (Example 12); assay type: biochemical; conditions: 1:100 dilution into ABTS reagent
Source text: as §2
Determination of the peracetic acid (PAA) concentration in the reaction mixtures by a colorimetric method was performed according to the method described by Dinu et. al. (supra). A reagent solution of 1 mM 2,2′-azino-bis(3-ethylbenzothiazoline)-6-sulfonate (ABTS), 50 μM potassium iodide in 125 mM potassium citrate buffer at pH 5.0 was prepared. […] The solution was analyzed for absorbance at 405 nm using a Microplate reader. A comparison of relative amounts of peracetic acid in solution was determined by comparing absorbance values directly.

In the case of OO [Enzyme H2O2, hydrogen peroxide], the “Whiteness Index 0 min” value ([1]; before treatment, 2.5% H2O2, 100 mM triacetin/250 mM H2O2, 1% PAA, 10 μM EZ-1/100 mM triacetin/250 mM H2O2, pH 7.2) is reported as −149.3, the ΔWI ([1]; one-step, 0 to 61 min) is reported as 46.2 and the “Whiteness Index 1 min” value ([1]; one-step, cumulative treatment 1 min) is reported as −146.3. The “Whiteness Index 6 min” value ([1]; one-step, cumulative treatment 6 min) was −142.5, the “Whiteness Index 16 min” value ([1]; one-step, cumulative treatment 16 min) was −134.7 and the “Whiteness Index 31 min” value ([1]; one-step, cumulative treatment 31 min) was −125.2. The “Whiteness Index 61 min” value ([1]; one-step, cumulative treatment 61 min) was −103.1, the ΔWI ([2]; Table 1, 2.5% H2O2 or 0.5% PAA) was 42.6 and the “Whiteness Index 1 min” value ([2]; Table 1, 2.5% H2O2 or 0.5% PAA, cumulative exposure 1 min) was −127.2. The “Whiteness Index 6 min” value ([2]; Table 1, 2.5% H2O2 or 0.5% PAA, cumulative exposure 6 min) was −124.5, the “Whiteness Index 16 min” value ([2]; Table 1, 2.5% H2O2 or 0.5% PAA, cumulative exposure 16 min) was −118.4 and the “Whiteness Index 31 min” value ([2]; Table 1, 2.5% H2O2 or 0.5% PAA, cumulative exposure 31 min) was −103.6. For the same molecule, the “Whiteness Index 61 min” value ([2]; Table 1, 2.5% H2O2 or 0.5% PAA, cumulative exposure 61 min) was −84.9, the “Whiteness Index 0 min” value ([2]; Table 1, 2.5% H2O2 or 0.5% PAA, 500 mM sodium phosphate pH 7.2) was −127.5 and the “Whiteness Index 1 min” value ([2]; Table 2, 2.5% H2O2) was −92.6. The “Whiteness Index 6 min” value ([2]; Table 2, 2.5% H2O2) was −86.4, the “Whiteness Index 16 min” value ([2]; Table 2, 2.5% H2O2) was −79.5 and the “Whiteness Index 31 min” value ([2]; Table 2, 2.5% H2O2) was −68.3. For the same molecule, the “Whiteness Index 61 min” value ([2]; Table 2, 2.5% H2O2) was −56.4, the ΔWI ([2]; Table 2, 2.5% H2O2) was 37.4 and the “Whiteness Index 0 min” value ([2]; Table 2, 2.5% H2O2) was −93.8. The “Whiteness Index Treatment 1” value ([3]; after 1 x 30 min treatment) was −129.6, the “Whiteness Index Treatment 2” value ([3]; after 2 x 30 min treatments) was −117.6 and the “Whiteness Index Treatment 3” value ([3]; after 3 x 30 min treatments) was −115.2. The “Whiteness Index Treatment 0” value ([3]; before treatment, 40 ppm EZ-1, 100 mM substrate, H2O2 100 mM (TA), 360 mM (PGDA, SOC), 60 mM (GPA), pH 7.2, control 9% H2O2 pH 5.3 without enzyme) was −167.6, the ΔWI ([3]; treatment 0 to treatment 3) was 52.4 and the “Absorbance 405 nm, 1 min” value ([4]; peracetic acid at end of 1 min treatment) was 0.056. For the same molecule, the “Absorbance 405 nm, 10 min” value ([4]; peracetic acid at end of 10 min treatment) was 0.060 and the “Absorbance 405 nm, 30 min” value ([4]; peracetic acid at end of 30 min treatment) was 0.054.
